Assays:
Assay in all cases: relative viability (nuclei count vs DMSO), 5 days (fraction); higher = more cells survive
[1] = compound: CN(c1ncccc1CNc1nc(Nc2ccc3c(c2)CC(=O)N3)ncc1C(F)(F)F)S(C)(=O)=O + N=C(N)NC(=N)NCCc1ccccc1 [Phenformin] (partner 250 µM)
How it was run: (§1)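 Lung cancer cell lines, seeded in 1536-well plates, were treated the following day by pin tool with a single drug or with five library-drug doses (not always all listed) in √10 steps on top of a fixed anchor-drug dose. Cells were fixed and nuclei stained in one step after 5 days, and nuclei were counted. Relative viability is the nuclei count for treated wells divided by that for vehicle wells, reported as medians of duplicate plates.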

[2] = compound: CN(c1ncccc1CNc1nc(Nc2ccc3c(c2)CC(=O)N3)ncc1C(F)(F)F)S(C)(=O)=O + O=C(c1cc(Cc2n[nH]c(=O)c3ccccc23)ccc1F)N1CCN(C(=O)C2CC2)CC1 [Olaparib] (partner 8 µM)
How it was run: as §1

[3] = compound: CN(c1ncccc1CNc1nc(Nc2ccc3c(c2)CC(=O)N3)ncc1C(F)(F)F)S(C)(=O)=O + CC(=O)Nc1cccc(-n2c(=O)n(C3CC3)c(=O)c3c(Nc4ccc(I)cc4F)n(C)c(=O)c(C)c32)c1 [Trametinib] (partner 0.02 µM)
How it was run: as §1

[4] = compound: CN(c1ncccc1CNc1nc(Nc2ccc3c(c2)CC(=O)N3)ncc1C(F)(F)F)S(C)(=O)=O
How it was run: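 On vehicle-anchored 1536-well plates, lung cancer cell lines held overnight at 37 °C were pinned with five library-drug doses (not always all listed) spaced by √10. With no medium change over 5 days, they were then fixed, permeabilised and Hoechst-stained in one step and imaged at 4×. MetaXpress counted nuclei, and viability is the median across plates of treated-well over vehicle-well nuclei. Acceptance needed control CV below 25% and at least one doubling.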

Cell Line	relative viability ([1]; first compound 0.01 µM)	relative viability ([1]; first compound 0.03162 µM)	relative viability ([1]; first compound 0.1 µM)	relative viability ([1]; first compound 0.3162 µM)	relative viability ([1]; first compound 1 µM)	relative viability ([2]; first compound 0.01 µM)	relative viability ([2]; first compound 0.03162 µM)	relative viability ([2]; first compound 0.1 µM)	relative viability ([2]; first compound 0.3162 µM)	relative viability ([2]; first compound 1 µM)	relative viability ([3]; first compound 0.01 µM)	relative viability ([3]; first compound 0.03162 µM)	relative viability ([3]; first compound 0.1 µM)	relative viability ([3]; first compound 0.3162 µM)	relative viability ([3]; first compound 1 µM)	relative viability ([4]; 0.01 µM)	relative viability ([4]; 0.03162 µM)	relative viability ([4]; 0.1 µM)	relative viability ([4]; 0.3162 µM)	relative viability ([4]; 1 µM)
LCLC-97TM1	0.345	0.437	0.425	0.397	0.401	0.45	0.414	0.401	0.291	0.261	0.207	0.189	0.184	0.206	0.124	1	1.11	0.881	0.966	0.821
HARA	0.449	0.5	0.532	0.432	0.356	0.895	0.75	0.685	1.1	0.9	0.816	0.63	0.439	0.63	0.723	0.943	0.757	0.937	0.874	0.787
HCC-78	0.67	0.662	0.563	0.566	0.573	0.856	0.999	0.783	0.797	0.714	0.681	0.864	0.753	0.641	0.507	0.993	1.02	0.807	0.862	0.739
NCI-H1666	0.524	0.621	0.514	0.508	0.384	0.671	0.755	0.702	0.744	0.706	0.902	0.853	0.762	0.838	0.658	1.01	0.953	0.965	0.818	0.719
NCI-H2347	0.37	0.38	0.6	0.407	0.221	0.598	0.546	0.525	0.515	0.443	0.276	0.268	0.27	0.277	0.255	1.09	0.942	0.978	0.877	0.829
NCI-H838	0.604	0.671	0.575	0.504	0.396	0.736	0.809	0.725	0.55	0.43	0.534	0.695	0.501	0.421	0.329	1.01	1.03	0.979	0.903	0.808
NCI-H2023	0.451	0.45	0.416	0.314	0.408	0.458	0.476	0.467	0.359	0.407	0.52	0.539	0.6	0.426	0.52	1.06	1.19	0.787	0.797	0.892
201T	0.43	0.394	0.445	0.443	0.437	0.827	0.887	0.814	0.776	0.779	0.709	0.712	0.664	0.669	0.67	1.02	0.951	0.911	0.949	0.961
NCI-H1915	0.386	0.379	0.365	0.368	0.36	0.272	0.241	0.262	0.264	0.285	0.288	0.293	0.293	0.315	0.29	0.992	1	0.965	0.995	0.991
NCI-H2009	0.525	0.483	0.502	0.413	0.504	0.651	0.707	0.684	0.681	0.679	0.25	0.263	0.246	0.29	0.286	1.07	1.03	0.965	0.961	0.982
BEN	0.253	0.281	0.268	0.336	0.246	0.961	1.27	1.26	1.18	1.1	0.954	1.19	0.92	1.02	0.869	1.05	1.06	1.03	1	1.02
PC-14	0.726	0.59	0.563	0.565	0.715	0.38	0.282	0.271	0.261	0.243	0.82	0.909	0.891	0.726	0.619	1.09	1.09	1.05	0.982	0.963
SK-MES-1	0.698	0.63	0.658	0.596	0.513	0.718	0.76	0.731	0.538	0.499	0.562	0.532	0.558	0.57	0.513	1.01	1.06	0.954	0.971	0.832
NCI-H727	0.626	0.655	0.389	0.616	0.444	0.776	0.707	0.77	0.635	0.715	0.386	0.364	0.404	0.424	0.333	1	0.949	0.87	1.02	0.79
NCI-H1355	0.45	0.442	0.449	0.406	0.432	0.7	0.784	0.713	0.691	0.669	0.361	0.41	0.439	0.384	0.357	1.03	1.03	0.954	0.995	0.948
NCI-H1975	0.386	0.41	0.377	0.392	0.311	0.799	0.873	0.821	0.832	0.7	0.358	0.348	0.461	0.342	0.315	1.01	0.964	0.927	0.931	0.95
LK-2	0.376	0.386	0.63	0.517	0.532	0.807	0.846	0.615	0.639	0.542	0.897	0.973	0.679	0.73	0.601	1.05	1.24	1.03	1.08	1.1
NCI-H661	0.285	0.286	0.289	0.277	0.294	0.727	0.85	0.74	0.771	0.7	0.549	0.729	0.577	0.615	0.608	1.08	1.05	0.89	0.988	0.968

Cell Line	relative viability ([1]; first compound 0.01 µM)	relative viability ([1]; first compound 0.03162 µM)	relative viability ([1]; first compound 0.1 µM)	relative viability ([1]; first compound 0.3162 µM)	relative viability ([1]; first compound 1 µM)	relative viability ([2]; first compound 0.01 µM)	relative viability ([2]; first compound 0.03162 µM)	relative viability ([2]; first compound 0.1 µM)	relative viability ([2]; first compound 0.3162 µM)	relative viability ([2]; first compound 1 µM)	relative viability ([3]; first compound 0.01 µM)	relative viability ([3]; first compound 0.03162 µM)	relative viability ([3]; first compound 0.1 µM)	relative viability ([3]; first compound 0.3162 µM)	relative viability ([3]; first compound 1 µM)	relative viability ([4]; 0.01 µM)	relative viability ([4]; 0.03162 µM)	relative viability ([4]; 0.1 µM)	relative viability ([4]; 0.3162 µM)	relative viability ([4]; 1 µM)
HCC-366	0.662	0.695	0.614	0.577	0.606	0.351	0.376	0.347	0.292	0.352	0.41	0.398	0.296	0.303	0.308	0.997	1.04	1.02	1	1.02
HOP-62	0.776	0.681	0.628	0.675	0.558	0.526	0.421	0.326	0.363	0.384	0.353	0.438	0.379	0.332	0.306	1.07	1.08	0.99	0.979	0.98
NCI-H1944	0.22	0.201	0.193	0.19	0.216	0.402	0.421	0.416	0.436	0.42	0.412	0.45	0.39	0.449	0.412	0.993	0.983	1	1.02	1.06
SW 1573	0.383	0.405	0.381	0.412	0.314	0.491	0.682	0.443	0.517	0.398	0.568	0.567	0.531	0.636	0.449	0.996	1.12	0.974	0.922	0.944
LU99A	0.874	0.706	0.952	0.924	1.15	0.26	0.305	0.302	0.261	0.236	0.559	0.663	0.564	0.65	0.574	0.964	1.06	1.04	1.17	1.01
NCI-H647	0.483	0.689	0.616	0.579	0.401	0.528	0.494	0.708	0.597	0.488	0.582	0.594	0.459	0.463	0.414	0.979	1.26	1.02	0.889	0.886
A-427	0.337	0.315	0.353	0.269	0.291	0.752	0.738	0.651	0.741	0.651	0.722	0.791	0.67	0.821	0.741	1.01	1.02	0.944	1.02	1.05
COR-L 105	0.46	0.493	0.45	0.418	0.492	0.794	0.709	0.728	0.645	0.522	0.459	0.419	0.453	0.479	0.445	1.04	0.955	0.945	0.874	0.92
NCI-H441	0.926	0.859	0.805	0.864	0.787	0.633	0.592	0.466	0.486	0.408	0.457	0.461	0.402	0.336	0.403	1.09	1.15	0.901	1.22	0.767
NCI-H2126	0.515	0.514	0.456	0.527	0.491	0.879	1.01	0.865	0.867	0.795	0.51	0.65	0.483	0.591	0.537	1	1	0.911	0.964	0.872
EBC-1	–	–	–	–	–	0.71	0.649	0.706	0.634	0.58	–	–	–	–	–	1.03	1.09	0.989	0.937	0.776
ABC-1	0.214	0.238	0.26	0.279	0.229	0.813	1.08	1.42	0.893	1.06	–	–	–	–	–	0.947	0.818	0.926	0.899	0.879
NCI-H1563	0.677	0.686	0.683	0.634	0.649	–	–	–	–	–	–	–	–	–	–	1	0.962	0.947	0.808	0.938
NCI-H1299	–	–	–	–	–	0.96	1.04	0.991	0.948	0.955	–	–	–	–	–	1.02	1.04	1.04	0.986	1.01
A549	0.189	0.205	0.173	0.133	0.152	0.29	0.367	0.352	0.464	0.373	–	–	–	–	–	1.04	1.17	0.922	0.95	0.95
IA-LM	–	–	–	–	–	0.758	0.959	0.802	–	0.66	–	–	–	–	–	0.899	1.11	0.912	0.823	0.805
Calu-6	–	–	–	–	–	0.581	0.581	0.535	0.498	0.453	–	–	–	–	–	1.06	0.99	0.945	0.961	0.863
